Legend:
human diaphorase (NQO1) = biological target: T1, human diaphorase (NQO1) (Homo sapiens, UniProt P15559); experiment: Alexa Fluor 555-diaphorase binding to linear and lactam constrained peptide microarrays; conditions: 10.0 nM protein applied to the array; for Diaphorase Lactam, log 10 transformed median intensity: lactam constrained library peptide; for Diaphorase Linear, log 10 transformed median intensity: linear library peptide
T1 construct: purchased SigmaAldrich
Source text: (§1) Diaphorase is NAD(P)H dehydrogenase (UniProtKB: P15559) encoded by the NQO1 gene. Diaphorase has utility as a model enzyme; for which peptide based synthetic affinity agents to diaphorase are required. A 3.3 million feature peptide array was used to identify potential binding partner peptides for diaphorase. Ferredoxin NADP+ Reductase (FNR) and Ferredoxin are included as counter screens for a specific application, while immunoglobulin depleted human serum (Non-Immunoglobulin Serum Components or NISC) was used as a complex mixture to control for generally sticky peptides.
Two wafers from the same synthesis batch were obtained where one wafer was prepared with the lactam chemistry and constrained into a cyclized form. The degree of cyclization was confirmed using the biotinylation assay described in Examples 9, 17, and 19.
(§2) Peptide arrays were prepared for protein binding by pretreating the arrays in PBST for 30 min at […]. Direct labeled diaphorase (Alexa Fluor™ 555), direct labeled FNR (Alexa Fluor™ 555) and biotinylated ferredoxin were applied to the arrays at 1.0 and 10.0 nM along with direct labeled NISC at 0.001 mg/mL for 1 hr at 37° C. Arrays were washed 3× with PBST and Streptavidin-Alexa Fluor™ 555 was applied to the biotinylated ferredoxin and streptavidin alone arrays. All other arrays received PBST and were incubated for 1 hr at 37° C. Arrays were washed with PBST and p53Ab1-Alexa Fluor™ 647 applied to all arrays to illuminate the edge fiducials for 10 min at 37° C. Following the final incubation arrays were washed in PBST and water, dried and imaged on the ImageXpress ([…]). Triplicate arrays were used for the subsequent analysis except for when rejection of an array was necessary due to the presence of artifacts. Data were analyzed using a custom R script.
Intensities plotted are the log 10 transformed median intensity from replicate arrays. Coloring of the points represents the density of features at that intensity using a gray-scale map. Light grey represents areas of low peptide numbers while black represents the intensity having the highest number of peptides. The diagonal line is equivalence line. […] CLUSTAL sequence alignment (FIG. 27B) of the sequences indicated similarities in amino acid composition. Highlighted amino acids are conserved in over 60% of the peptides for that position or are a chemically similar amino acid (ie: F and Y).
The sequences contain similar amino acid usage. Four peptides having the highest degree of cyclization in the quality control assay were identified and binding intensities compared to other library peptides having one or two amino acid substitutions as shown in FIG. 28. Substitutional analysis provides confidence in the array data by indicating which residues are important for binding. Dark grey boxes highlight indicate a residue conserved in more than 60% of the peptides. Light grey boxes highlight indicate chemically similar amino acids to the conserved residue. RFI is the intensity is the median replicate log 10 intensity for the 10.0 nM Diaphorase.

Ferredoxin = experiment: Biotinylated ferredoxin counter screen on linear and lactam constrained peptide microarrays; assay type: binding; conditions: 10.0 nM biotinylated protein, detected with Streptavidin-Alexa Fluor 555; for Ferredoxin Lactam, log 10 transformed median intensity: lactam constrained library peptide; for Ferredoxin Linear, log 10 transformed median intensity: linear library peptide
Source text: as §1, §2

Streptavidin = Streptavidin (Streptomyces avidinii, UniProt P22629); experiment: Streptavidin-Alexa Fluor 555 alone on linear and lactam constrained peptide microarrays; assay type: binding; conditions: for Streptavidin Lactam, log 10 transformed median intensity: lactam constrained library peptide; for Streptavidin Linear, log 10 transformed median intensity: linear library peptide
Chain of Streptavidin (P22629 25-183, species assumed): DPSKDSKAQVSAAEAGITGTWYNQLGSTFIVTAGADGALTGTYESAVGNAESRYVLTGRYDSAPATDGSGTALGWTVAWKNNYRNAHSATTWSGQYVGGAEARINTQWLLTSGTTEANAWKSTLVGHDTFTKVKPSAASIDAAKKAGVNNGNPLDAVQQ
Description: as §2

[1] = test system: Ferredoxin NADP+ Reductase (FNR); experiment: FNR counter screen on linear and lactam constrained peptide microarrays; assay type: binding; conditions: 10.0 nM protein applied to the array; for FNR Lactam, log 10 transformed median intensity: lactam constrained library peptide; for FNR Linear, log 10 transformed median intensity: linear library peptide
Source text: as §1, §2

[2] = test system: Non-Immunoglobulin Serum Components (NISC); experiment: NISC counter screen on linear and lactam constrained peptide microarrays; assay type: binding, human; conditions: 0.001 mg/mL NISC applied to the array; for NISC Lactam, log 10 transformed median intensity: lactam constrained library peptide; for NISC Linear, log 10 transformed median intensity: linear library peptide
Source text: as §1, §2
Peptides were also selected based on the difference in log 10 transformed intensities between diaphorase and NISC as the counter screen agent (LFGdiaphorase minus LFGNISC). Intensities for 10.0 nM diaphorase and 0.001 mg/mL NISC are shown in FIG. 29A where intensities plotted are the log 10 transformed median intensity from replicate arrays. Coloring of the points represents the density of features at that intensity using a grey colorscale. Light grey represents areas of low peptide numbers while black represents the intensity having the highest number of peptides. The diagonal line is equivalence line. Selectivity vs NISC was not dependent on cyclization as diaphorase also bound the linear forms for some peptides (Table 4). Three peptides having the highest degree of cyclization in the quality control assay were identified and binding intensities compared to other library peptides having one or two amino acid substitutions (FIG. 30) Each CLUSTAL alignment contains the library peptides having a maximum of two substitutions to the parent peptide. Dark grey highlights indicate a residue conserved in more than 60% of the peptides. Light grey highlights indicate chemically similar amino acids to the conserved residue. The amino acid usage is indicated in the sequence logo above the alignment. Substitutional analysis provides confidence in the array data by indicating which residues are important for binding.

T1 sequence (P15559 whole entry): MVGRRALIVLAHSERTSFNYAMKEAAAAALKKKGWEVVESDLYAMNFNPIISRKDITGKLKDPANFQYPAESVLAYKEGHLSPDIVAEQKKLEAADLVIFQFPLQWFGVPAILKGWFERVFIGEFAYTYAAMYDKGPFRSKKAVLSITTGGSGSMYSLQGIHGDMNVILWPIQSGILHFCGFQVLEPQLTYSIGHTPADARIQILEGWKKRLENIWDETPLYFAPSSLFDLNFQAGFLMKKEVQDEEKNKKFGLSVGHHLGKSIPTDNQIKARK

Substance	Diaphorase Lactam, log 10 transformed median intensity (human diaphorase (NQO1))	Diaphorase Linear, log 10 transformed median intensity (human diaphorase (NQO1))	Ferredoxin Lactam, log 10 transformed median intensity (Ferredoxin)	Ferredoxin Linear, log 10 transformed median intensity (Ferredoxin)	Streptavidin Lactam, log 10 transformed median intensity (Streptavidin)	Streptavidin Linear, log 10 transformed median intensity (Streptavidin)	FNR Lactam, log 10 transformed median intensity [1]	FNR Linear, log 10 transformed median intensity [1]	NISC Lactam, log 10 transformed median intensity [2]	NISC Linear, log 10 transformed median intensity [2]
PYSNVFQG [library array peptide, tested lactam constrained and linear]	4.43	3.88	2.59	2.57	2.54	2.54	2.56	2.56	2.72	2.66
PPYTYANN [library array peptide, tested lactam constrained and linear]	4.35	4.00	2.56	2.55	2.53	2.52	2.54	2.53	2.66	2.63
TYPGVYPS [library array peptide, tested lactam constrained and linear]	4.40	2.75	2.69	2.54	2.53	2.51	2.59	2.54	3.16	2.58
PTSSYLN [library array peptide, tested lactam constrained and linear]	4.32	3.75	2.56	2.55	2.52	2.53	2.53	2.53	2.63	2.61
PGKPNTQ [library array peptide, tested lactam constrained and linear]	4.36	4.15	2.55	2.63	2.51	2.53	2.54	2.7	2.68	2.84
IGPNPKNN [library array peptide, tested lactam constrained and linear]	4.34	4.22	2.56	2.59	2.52	2.52	2.54	2.57	2.65	2.78
TFGFNGFP [library array peptide, tested lactam constrained and linear]	4.49	2.84	2.70	2.55	2.53	2.52	2.59	2.55	3.49	2.62
TTFSFSTP [library array peptide, tested lactam constrained and linear]	4.47	2.78	2.69	2.58	2.55	2.54	2.62	2.57	3.33	2.62
PFSGQPNS [library array peptide, tested lactam constrained and linear]	4.38	3.70	2.59	2.59	2.57	2.56	2.58	2.58	2.67	2.63
TTLFQTPY [library array peptide, tested lactam constrained and linear]	4.45	2.80	2.66	2.54	2.53	2.52	2.63	2.54	3.28	2.69
PPYPNQYQ [library array peptide, tested lactam constrained and linear]	4.39	4.04	2.58	2.58	2.53	2.53	2.55	2.56	2.69	2.69
TSFFPGYN [library array peptide, tested lactam constrained and linear]	4.51	2.86	2.71	2.54	2.52	2.53	2.62	2.54	3.47	2.60
